Data set [1] in a line: clinical. The conditions noted are these: human, in vivo, iv, Vdss.
Data set [2] is described as follows: clinical. As to conditions: human, in vivo, iv, CL.
The nature of data set [3]: clinical. As to conditions: human, in vivo, iv.
A short description of data set [4]: clinical. As to conditions: human, in vivo, iv, t1/2.

Numbered stars: 1 amine (or outer) side, 2 acyl side, 3 side chain; on linkers, the order of the positions; unused ones are H or OH. Bridge positions count the residues as written; N and C are the ends. Square brackets hold non-standard residues; d marks the D form. Peptide text beside a SMILES is read from it. * marks the point of attachment. pTerphenylCO(4''-OnC5H11) = CCCCCOc1ccc(-c2ccc(-c3ccc(C(=O)*)cc3)cc2)cc1; Orn(4R-OH,5R-OH) = O=C([C@H](C[C@@H](O)[C@@H](O)N[*:3])N[*:1])[*:2]; hTyr(3S-OH,4S-OH) = N[C@H](C(=O)O)[C@H](O)[C@@H](O)c1ccc(O)cc1; Pro(3S-OH,4S-Me) = C[C@H]1CN[C@H](C(=O)O)[C@H]1O; Hyp = O=C(O)[C@@H]1C[C@@H](O)CN1

For `CCCc1nc2c(C)cc(-c3nc4ccccc4n3C)cc2n1Cc1ccc(-c2ccccc2C(=O)O)cc1`, the Vd in the data set “clinical [1]” was found to be 5.3 L/kg. In addition, the clearance in “clinical [2]” was found to be 8.4 mL/min/kg. This molecule also yielded an MRT in the data set “clinical [3]” of 11 h. For the same molecule, in “clinical [4]”, the half-life is 20 h.
`C=CC[N+]12CC[C@@]34c5ccccc5N5/C=C6/[C@H]7C[C@H]8[C@@]9(CC[N@@+]8(CC=C)C/C7=C/CO)c7ccccc7N(/C=C(/[C@@H](C[C@@H]31)/C(=C\CO)C2)[C@H]54)[C@@H]69` (stereo partly specified) yielded a Vd in “clinical [1]” of 0.32 L/kg. The molecule also registered a clearance in “clinical [2]” of 1.3 mL/min/kg. Besides, the MRT in “clinical [3]” is 4.1 h. In addition, the half-life in “clinical [4]” is 3.6 h.
The corresponding values for `CNS(=O)(=O)CCc1ccc2[nH]cc(C3CCN(C)CC3)c2c1` are 2.4 L/kg, 6.6 mL/min/kg, 6.1 h and 6.6 h.
In the same order, the values of `CNS(=O)(=O)Cc1ccc2[nH]cc(CCN(C)C)c2c1` are 1.7 L/kg, 19 mL/min/kg, 1.5 h and 1.7 h.
The corresponding values for `CN(C)CCN(Cc1cccs1)c1ccccn1` are 3.3 L/kg, 28 mL/min/kg, 2 h and 1.6 h.
Molecule `C[C@@H]1CC2=CC(=O)CC[C@]2(C)[C@H]2CC[C@@]3(C)[C@@H](CC[C@@H]3O)[C@]12C` returned a volume of distribution (Vd) in the data set “clinical [1]” of 0.8 L/kg. This molecule registered a clearance in “clinical [2]” of 20 mL/min/kg. In the data set “clinical [3]”, this molecule displayed an MRT of 0.67 h. The half-life in “clinical [4]” was 0.65 h.
In the same order, the values of `CN1C(=O)[C@H](O)C[C@H]1c1cccnc1` are 0.85 L/kg, 1.8 mL/min/kg, 7.9 h and 5.9 h.
The corresponding values for `C#C[C@]1(OS(=O)(=O)O)CC[C@H]2[C@@H]3CCc4cc(O)ccc4[C@H]3CC[C@@]21C` are 0.61 L/kg, 1.3 mL/min/kg, 7.8 h and 9.3 h.
In “clinical [1]”, `NCCCNc1ccc2c(CNCCO)nn3c4c(O)ccc(O)c4c(=O)c1c23` yielded a Vd of 12 L/kg. Besides, the clearance in the data set “clinical [2]” was 18 mL/min/kg. Moreover, the MRT in the data set “clinical [3]” worked out at 11 h. This molecule showed a half-life in “clinical [4]” of 32 h.
In the same order, the values of `CC(C)(C)[C@H](NC(=O)[C@H](CC1CCCC1)CN(O)C=O)C(=O)N1CCN(Cc2ccc3c(c2)OCO3)CC1` are 1.1 L/kg, 3.1 mL/min/kg, 5.9 h and 9.4 h.
In “clinical [1]”, `CCN1C[C@H]2CN(C)C[C@H](C1)C2OC(=O)c1ccc(Cl)cc1` (stereo partly specified) came in with a Vd of 9 L/kg. The molecule also came in with a clearance in “clinical [2]” of 17 mL/min/kg. This molecule also displayed a mean residence time (MRT) in the data set “clinical [3]” of 8.8 h. Moreover, the half-life in the data set “clinical [4]” was 8.6 h.
For the molecule `COc1ccccc1N1CCN(CCCNc2cc(=O)n(C)c(=O)n2C)CC1`, the Vd in the data set “clinical [1]” came to 0.75 L/kg. Also, the clearance in the data set “clinical [2]” came to 3.1 mL/min/kg. The molecule also had an MRT in “clinical [3]” of 4 h. The half-life in the data set “clinical [4]” is 3.5 h.
The corresponding values for `CCC1=C[C@@H]2CN(C1)Cc1c([nH]c3ccccc13)[C@@](C(=O)OC)(c1cc3c(cc1OC)N(C)[C@H]1[C@@](O)(C(=O)OC)[C@H](OC(C)=O)[C@]4(CC)C=CCN5CC[C@]31[C@@H]54)C2` (stereo in doubt; form 1) [VINORELBINE] are 12 L/kg, 12 mL/min/kg, 17 h and 18 h.
In the same order, the values of `COc1cc2c(cc1OC)CN(c1cc(N)c3cc(OC)c(OC)cc3n1)CC2` [ABANOQUIL] are 6.3 L/kg, 14 mL/min/kg, 7.6 h and 5.9 h.
In the same order, the values of `C[C@H]1O[C@H](O[C@H]2[C@H](O)[C@@H](O)[C@@H](O[C@H]3[C@H](O)[C@@H](O)C(O)O[C@@H]3CO)O[C@@H]2CO)[C@H](O)[C@@H](O)[C@@H]1N[C@H]1C=C(CO)[C@@H](O)[C@H](O)[C@H]1O` (stereo partly specified) [ACARBOSE] are 0.32 L/kg, 2.2 mL/min/kg, 2.4 h and 2.7 h.
With `N[C@H](C(=O)O)[C@@H]1CC(Cl)=NO1` [ACIVICIN], the Vd in “clinical [1]” was found to be 0.5 L/kg. Moreover, the clearance in “clinical [2]” was 0.69 mL/min/kg. Also, the MRT in “clinical [3]” was 12 h. In the data set “clinical [4]”, this molecule showed a half-life of 9.9 h.
In the same order, the values of `Nc1ncnc2c1ncn2CCOCP(=O)(O)O` [ADEFOVIR] are 0.42 L/kg, 3.7 mL/min/kg, 1.9 h and 1.6 h.
The corresponding values for `CN(C)Cc1nnc2n1-c1ccc(Cl)cc1C(c1ccccc1)=NC2` [ADINAZOLAM] are 0.98 L/kg, 6.2 mL/min/kg, 2.6 h and 2.1 h.
The corresponding values for `COc1cc2nc(N(C)CCCNC(=O)C3CCCO3)nc(N)c2cc1OC` (stereo unspecified) [ALFUZOSIN] are 1.5 L/kg, 5.9 mL/min/kg, 4.2 h and 4.8 h.
With `C=CCN1CCCC1CNC(=O)c1cc2[nH]nnc2cc1OC` (stereo unspecified) [ALIZAPRIDE], the Vd in the data set “clinical [1]” worked out at 1.6 L/kg. The clearance in “clinical [2]” was 6.6 mL/min/kg. This molecule showed an MRT in “clinical [3]” of 4 h. Also, in the data set “clinical [4]”, the half-life is 2.8 h.
The corresponding values for `Cc1[nH]cnc1CN1CCc2c(c3ccccc3n2C)C1=O` [ALOSETRON] are 1.1 L/kg, 8.7 mL/min/kg, 2.1 h and 1.6 h.
As to `Cc1nnc2n1-c1ccc(Cl)cc1C(c1ccccc1)=NC2` [ALPRAZOLAM], the Vd in the data set “clinical [1]” came out at 0.8 L/kg. In the data set “clinical [2]”, this molecule came in with a clearance of 0.74 mL/min/kg. Also, in “clinical [3]”, the MRT was 18 h. In addition, the half-life in the data set “clinical [4]” was 12 h.
The corresponding values for `CC1(C)S[C@@H]2[C@H](/N=C/N3CCCCCC3)C(=O)N2[C@H]1C(=O)O` [AMDINOCILLIN] are 0.37 L/kg, 6.3 mL/min/kg, 1 h and 1.1 h.
For the molecule `CN(C)CCC=C1c2ccccc2CCc2ccccc21` [AMITRIPTYLINE], the distribution volume (Vd) in “clinical [1]” came out at 8.7 L/kg. The molecule further showed a clearance in “clinical [2]” of 6.1 mL/min/kg. Besides, the MRT in “clinical [3]” was 24 h. The half-life in “clinical [4]” is 17 h.
In the same order, the values of `CC1(C)S[C@@H]2[C@H](NC(=O)[C@H](N)c3ccc(O)cc3)C(=O)N2[C@H]1C(=O)O` [AMOXICILLIN] are 0.25 L/kg, 3.3 mL/min/kg, 1.3 h and 1.1 h.
The corresponding values for `CC1(C)S[C@@H]2[C@H](NC(=O)[C@H](N)c3ccccc3)C(=O)N2[C@H]1C(=O)O` [AMPICILLIN] are 0.22 L/kg, 2.8 mL/min/kg, 1.3 h and 1.4 h.
The corresponding values for `CCCCCOc1ccc(-c2ccc(-c3ccc(C(=O)N[C@H]4C[C@@H](O)[C@@H](O)NC(=O)[C@@H]5[C@@H](O)[C@@H](C)CN5C(=O)[C@H]([C@@H](C)O)NC(=O)[C@H]([C@H](O)[C@@H](O)c5ccc(O)cc5)NC(=O)[C@@H]5C[C@@H](O)CN5C(=O)[C@H]([C@@H](C)O)NC4=O)cc3)cc2)cc1` [ANIDULAFUNGIN] ({pTerphenylCO(4''-OnC5H11)}-[Orn(4R-OH,5R-OH)]T[Hyp][hTyr(3S-OH,4S-OH)]T[Pro(3S-OH,4S-Me)]; lactam 1-C) are 0.57 L/kg, 0.21 mL/min/kg, 45 h and 40 h.
The molecule `Cc1cc(=O)n(-c2ccccc2)n1C` [ANTIPYRINE] yielded a Vd in the data set “clinical [1]” of 0.77 L/kg. Moreover, the clearance in “clinical [2]” amounted to 0.64 mL/min/kg. This molecule registered an MRT in the data set “clinical [3]” of 20 h. The half-life in “clinical [4]” is 12 h.
The corresponding values for `CN(C)C(=O)Oc1cc(OC(=O)N(C)C)cc(C(O)CNC(C)(C)C)c1` (stereo unspecified) [BAMBUTEROL] are 1.6 L/kg, 18 mL/min/kg, 1.4 h and 2.6 h.
The corresponding values for `O=C(CCCN1CCC(n2c(O)nc3ccccc32)CC1)c1ccc(F)cc1` [BENPERIDOL] are 3.8 L/kg, 8.3 mL/min/kg, 7.5 h and 5.8 h.
The corresponding values for `CC(C)NCC(O)COc1ccc(CCOCC2CC2)cc1` (stereo unspecified) [BETAXOLOL] are 4.8 L/kg, 3.4 mL/min/kg, 24 h and 17 h.
In turn, `CC(C)(C)[C@]1(O)CC2OC(=O)CC23C(=O)OC2OC(=O)[C@H](O)C231` (stereo partly specified) [BILOBALIDE] displayed a Vd in the data set “clinical [1]” of 2.5 L/kg. This molecule also showed a clearance in the data set “clinical [2]” of 10 mL/min/kg. In “clinical [3]”, this molecule returned an MRT of 4 h. This molecule also showed a half-life in the data set “clinical [4]” of 3.2 h.
The corresponding values for `N#Cc1ccc2c(c1)CN(S(=O)(=O)c1cccs1)[C@H](Cc1ccccc1)CN2Cc1cnc[nH]1` [BMS-214662] are 0.84 L/kg, 9.6 mL/min/kg, 1.4 h and 1.6 h.
As for `O=C1CN=C(c2ccccn2)c2cc(Br)ccc2N1` [BROMAZEPAM], in “clinical [1]”, the Vd came to 0.85 L/kg. Further, the clearance in “clinical [2]” was found to be 0.51 mL/min/kg. Further, the MRT in the data set “clinical [3]” stood at 28 h. In the data set “clinical [4]”, this molecule had a half-life of 21 h.
The corresponding values for `CCCC1O[C@@H]2C[C@H]3[C@@H]4CCC5=CC(=O)C=C[C@]5(C)[C@H]4[C@@H](O)C[C@]3(C)[C@]2(C(=O)CO)O1` (stereo partly specified) [BUDESONIDE] are 3.9 L/kg, 20 mL/min/kg, 3.2 h and 2.8 h.
The corresponding values for `COc1cc(OC)c(C(=O)CCCN2CCCC2)c(OC)c1` [BUFLOMEDIL] are 1.3 L/kg, 5.6 mL/min/kg, 3.9 h and 3.3 h.
On to `CCCCNc1cc(C(=O)O)cc(S(N)(=O)=O)c1Oc1ccccc1` [BUMETANIDE], for which the Vd in “clinical [1]” is 0.16 L/kg. This molecule also came in with a clearance in “clinical [2]” of 2.5 mL/min/kg. The MRT in the data set “clinical [3]” amounted to 1.1 h. In addition, the half-life in the data set “clinical [4]” was 1.2 h.
In the same order, the values of `CCCCN1CCCCC1C(=O)Nc1c(C)cccc1C` (stereo unspecified) [BUPIVACAINE] are 0.84 L/kg, 4.3 mL/min/kg, 3.3 h and 3.1 h.
The molecule `CS(=O)(=O)OCCCCOS(C)(=O)=O` [BUSULFAN] displayed a Vd in the data set “clinical [1]” of 0.55 L/kg. The same molecule registered a clearance in “clinical [2]” of 2.4 mL/min/kg. In the data set “clinical [3]”, this molecule registered an MRT of 3.8 h. In addition, the half-life in the data set “clinical [4]” was 3.4 h.

Source of the values: ChEMBL document CHEMBL1614632, “Trend analysis of a database of intravenous pharmacokinetic parameters in humans for 670 drug compounds” (Drug Metab Dispos, 2008).
